Assay [1] concerns recombinant human IL-23 protein (rhIL-23). The experiment in a line: Binding of mouse antiserum to rhIL-23, ELISA. The settings on record: rhIL-23 ELISA; antiserum of BALB/c mice 6 weeks after initial administration, 0.5 mg/body with Alhydrogel. How it is done: (§1) AJP001 conjugated peptide (SEQ ID NOs: 6-37) was dissolved in physiological saline, mixed with an equal amount of 2% Alhydrogel (invivogen), and this was intradermally administered to BALB/c mice (female, 6-week-old, N=5-6) at 0.5 mg/body 3 times at two-week intervals. Blood was collected before administration and at the time point of 6 weeks after initial administration, and the antibody titer (GMT) to each epitope sequence and binding ability to recombinant human IL-23 protein (rhIL-23) (Peprotech) were measured by the ELISA method (same method as in Example 1). The binding to rhIL-23 was evaluated by a binding ratio to normal serum by calculating the ratio of the absorbance of a well added with normal mouse serum to the absorbance of a well added with antiserum derived from a mouse administered with each AJP001 conjugated peptide (SEQ ID NOs: 6-37). In addition, the neutralization activity of mouse antiserum was evaluated using an action on IL-17 production in rhIL-23 stimulated mouse splenocyte as an index. The spleen of normal BALB/c mouse (female, 5-week-old, N=3) was triturated using a syringe barrel and a cell strainer and washed with and suspended in HBSS (−). Erythrocytes were then removed using ACK Buffer (Thermo fisher scientific), and splenocytes were isolated. The splenocytes were prepared to 2.5×10^6 cells/mL with 10% FBS/1% penicillin/streptomycin/4 ng/mL rmIL-2-containing RPMI1640 medium (culture medium), and seeded in a 96 well plate at 100 μl/well. The antiserum (final concentration 15-fold) of the mice administered with each AJP001 conjugated peptide and rhIL-23 (final concentration 10 ng/ml) were added to the culture medium, reacted at 37° C. for 2 hr, added at 100 μL/well to a 96-well plate seeded with splenocytes, and cultured for 3 days in a 37° C./5% CO2 incubator. An untreated well and a control well to which normal mouse serum and rhIL-23 were added were provided. IL-17A/F in the culture supernatant was measured using Mouse IL-17A/F ELISA kit (R&D systems), the proportion (%) of IL-17 to normal serum was calculated from the IL-17 concentrations of untreated well (A), control well (B), and well (C) to which antiserum of the mice administered with each AJP001 conjugated peptide was added and according to the following formula, and the neutralization activity was evaluated.
AJP001 conjugated peptide (SEQ ID NO: 6) was dissolved in physiological saline and intradermally administered to BALB/c mice (female, 6-week-old, N=6) at 1 mg/body 3 times at two-week intervals, and blood was collected every 2 weeks until 8 weeks. The antibody titer (GMT) of all the collected sera and the binding ability to rhIL-23 of the serum at 6 weeks were measured by the ELISA method. In FIG. 5, “*” means P<0.05.

For assay [2], the system named is IL-17 production in rhIL-23 stimulated mouse splenocyte. The assay can be described thus: Neutralization activity of mouse antiserum: IL-17 production in rhIL-23 stimulated mouse splenocyte. The settings on record: antiserum final 15-fold, rhIL-23 10 ng/ml, 3 days culture; IL-17A/F ELISA. In kind it is cell-based. How it is done: as §1
Percentage of IL-17 to normal serum (%)=100×(C−A/B−A)
Background: In an ELISA, binding on a coated surface is turned into a signal by an enzyme label.

Assay [3] has as its system epitope peptide. The experiment in a line: Antibody titer (GMT) of serum of mice administered AJP001 conjugated peptide, ELISA. Conditions: BALB/c mice, 0.5 mg/body intradermal with equal amount of 2% Alhydrogel, 3 times at two-week intervals; serum 6 weeks after initial administration; titer to each epitope sequence. In kind it is in vivo, mouse. How it is done:
AJP001 conjugated peptide having one of the B cell epitope sequences of SEQ ID NOs: 1-5 was dissolved in physiological saline and intradermally administered twice to BALB/c mice (female, 6-week-old, N=5-6) at 0.5 mg/body at 2-week intervals. Blood was collected before administration and 5 weeks after the initial administration, and the antibody titer against each AJP001 conjugated peptide and the binding ability to recombinant mouse IL-23 protein (rmIL-23) were measured by the ELISA method. Specifically, a 96-well plate immobilized with an epitope peptide dissolved at 10 μg/mL in carbonate buffer was blocked with 5% skim milk/PBS, and then serum serially diluted with 5% skim milk/PBS was added, and the mixture was left standing at 4° C. overnight. After washing the wells with PBS-T, HRP-labeled anti-mouse IgG antibody (GE Healthcare) diluted with 5% skim milk/PBS was added and the mixture was shaken at room temperature for 3 hr. After washing the wells with PBS-T, TMB solution (SIGMA) was added, the wells were allowed to stand for 30 min in the dark, the reaction was stopped by adding 0.5M H2SO4, and the absorbance at 450 nm was measured using a plate reader. The serum dilution rate that gave 1/2 (OD=1.75) of the maximum absorbance was defined as the antibody titer, and the geometric mean titer: GMT was calculated from the individual values. Binding to IL-23 protein was measured by the ELISA method in the same manner as the antibody titer, using rmIL-23 (Antibodies-online GmbH) as the solid-phased antigen and goat serum for blocking.
AJP001 conjugated peptide (SEQ ID NO: 2) was dissolved in physiological saline and intradermally administered to BALB/c mice (female, 6-week-old, N=6) at 1 mg/body 3 times at two-week intervals, and blood was collected every 2 weeks until 8 weeks. The antibody titer (GMT) of all the collected sera and the binding ability to rmIL-23 of the serum at the time point of 6 weeks were measured by the ELISA method (same method as in Example 1). The antibody titer and the binding of the induced antibody to rmIL-23 at each time point are shown in FIGS. 2 (a) and (b), respectively.
as §1, with “An untreated well and a control well to which normal mouse serum and rhIL-23 were added were provided. IL-17A/F in the culture supernatant was measured using Mouse IL-17A/F ELISA kit (R&D systems), the proportion (%) of IL-17 to normal serum was calculated from the IL-17 concentrations of untreated well (A), control well (B), and well (C) to which antiserum of the mice administered with each AJP001 conjugated peptide was added and according to the following formula, and the neutralization activity was evaluated.” left out

In assay [4] the target is T1, p19 subunit (Homo sapiens, UniProt Q9NPF7).
T1 sequence (Q9NPF7 20-189): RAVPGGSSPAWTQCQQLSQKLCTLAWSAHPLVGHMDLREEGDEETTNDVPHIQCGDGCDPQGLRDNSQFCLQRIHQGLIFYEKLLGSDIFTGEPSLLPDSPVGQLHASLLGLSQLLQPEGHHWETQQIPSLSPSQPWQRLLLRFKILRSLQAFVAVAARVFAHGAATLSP
T1 sequence (P29460 23-328 partner): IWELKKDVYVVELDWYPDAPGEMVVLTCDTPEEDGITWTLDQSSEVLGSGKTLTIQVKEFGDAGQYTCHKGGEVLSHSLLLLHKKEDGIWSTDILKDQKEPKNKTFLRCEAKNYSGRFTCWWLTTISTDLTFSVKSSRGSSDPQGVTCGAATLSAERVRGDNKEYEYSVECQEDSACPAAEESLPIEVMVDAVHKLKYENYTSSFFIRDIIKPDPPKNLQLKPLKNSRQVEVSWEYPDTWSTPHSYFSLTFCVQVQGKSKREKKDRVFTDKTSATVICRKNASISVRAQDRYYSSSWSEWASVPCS
The settings on record: compared with Ustekinumab; cited from earlier work.

Where no end group is shown, it is not given here.

On to “26 (STSQQWQR; not fully specified (N-terminus)) [compound 26]”, for which the “binding to IL-23 (binding ratio to normal serum)” value in assay [1] was found to be 1.15. In addition, the “neutralization activity (percentage of IL-17 to normal serum (%))” value in assay [2] is on record as 0.0%. Also, the “antibody titer (GMT)” value in assay [3] was found to be 64652.

For the substance “27 (KPSQPWQR; not fully specified (N-terminus)) [compound 27]”, the “binding to IL-23 (binding ratio to normal serum)” value in assay [1] is recorded as 1.07. For the same substance, the “neutralization activity (percentage of IL-17 to normal serum (%))” value in assay [2] is 72.3%. Moreover, the “antibody titer (GMT)” value in assay [3] came to 12615.

Regarding “28 (SKSQPWQR; not fully specified (N-terminus)) [compound 28]”, the “binding to IL-23 (binding ratio to normal serum)” value in assay [1] is recorded as 1.13. Besides, the “neutralization activity (percentage of IL-17 to normal serum (%))” value in assay [2] is 42.2%. In addition, in assay [3], the “antibody titer (GMT)” value is on record as 4324.

For the substance “29 (SPKQPWQR; not fully specified (N-terminus)) [compound 29]”, the “binding to IL-23 (binding ratio to normal serum)” value in assay [1] is on record as 1.11. The “neutralization activity (percentage of IL-17 to normal serum (%))” value in assay [2] stood at 63.9%. For the same substance, in assay [3], the “antibody titer (GMT)” value was found to be 9056.

As for “30 (KKSQPWQR; not fully specified (N-terminus)) [compound 30]”, in assay [1], the “binding to IL-23 (binding ratio to normal serum)” value is reported as 1.2. In addition, the “neutralization activity (percentage of IL-17 to normal serum (%))” value in assay [2] came out at 68.9%. Moreover, the “antibody titer (GMT)” value in assay [3] is recorded as 6917.

As for “31 (PSQPWQR; not fully specified (N-terminus); listed as Homo sapiens) [compound 31]”, the “binding to IL-23 (binding ratio to normal serum)” value in assay [1] is on record as 0.99. Moreover, the “neutralization activity (percentage of IL-17 to normal serum (%))” value in assay [2] is reported as 63.4%. Besides, in assay [3], the “antibody titer (GMT)” value is listed as 12417.

Take “32 (SQPWQR; not fully specified (N-terminus); listed as Homo sapiens) [compound 32]”: in assay [1], the “binding to IL-23 (binding ratio to normal serum)” value came out at 1.03. Also, the “neutralization activity (percentage of IL-17 to normal serum (%))” value in assay [2] came to 61.3%. Also, in assay [3], the “antibody titer (GMT)” value was determined as 5567.

In the case of “33 (QPWQR; not fully specified (N-terminus); listed as Homo sapiens) [compound 33]”, in assay [1], the “binding to IL-23 (binding ratio to normal serum)” value worked out at 1.00. Also, in assay [2], the “neutralization activity (percentage of IL-17 to normal serum (%))” value is 72.6%. The “antibody titer (GMT)” value in assay [3] is given as 16458.

“34 (PSQPWQRK; not fully specified (N-terminus); listed as Homo sapiens) [compound 34]”: in assay [1], the “binding to IL-23 (binding ratio to normal serum)” value amounted to 0.97. Besides, the “neutralization activity (percentage of IL-17 to normal serum (%))” value in assay [2] stood at 32.5%. The “antibody titer (GMT)” value in assay [3] turned out to be 362.

Turning to “35 (SQPWQRK; not fully specified (N-terminus); listed as Homo sapiens) [compound 35]”, the “binding to IL-23 (binding ratio to normal serum)” value in assay [1] worked out at 1.30. In assay [2], the “neutralization activity (percentage of IL-17 to normal serum (%))” value is recorded as 32.5%. In assay [3], the “antibody titer (GMT)” value is on record as 92.

In the case of “36 (QPWQRSQPWQR; not fully specified (N-terminus)) [compound 36]”, the “binding to IL-23 (binding ratio to normal serum)” value in assay [1] is reported as 1.10. In addition, the “neutralization activity (percentage of IL-17 to normal serum (%))” value in assay [2] stood at 70.3%. The “antibody titer (GMT)” value in assay [3] came to 8202.

Regarding “37 (QPWQRGGGGSQPWQR; not fully specified (N-terminus)) [compound 37]”, the “binding to IL-23 (binding ratio to normal serum)” value in assay [1] is reported as 1.05. For the same substance, the “neutralization activity (percentage of IL-17 to normal serum (%))” value in assay [2] turned out to be 63.9%. The “antibody titer (GMT)” value in assay [3] is 6459.

On to Risankizumab, for which the “PASI90 (almost complete disappearance of psoriasis lesion) rate” value in assay [4] is on record as “about twice as high as that of Ustekinumab”.

Values taken from patent US20250057928A1, “VACCINE COMPOSITION FOR INDUCING ANTI-IL-23 ANTIBODY” (OSAKA UNIVERSITY, priority 2021, published 2025).
